In publication PMC7206119, “RIP1 inhibition blocks inflammatory diseases but not tumor growth or metastases” (Cell Death and Differentiation, 2019):

Tests used:
Test in all cases: biochemical
Set-up in all cases: DiscoverX kinase panel, active-site competition binding (KINOMEscan type), percent of control at one concentration
Settings in all cases: competition binding, percent of control
[1] = target: PAK1 (Homo sapiens, UniProt Q13153)
[2] = target: PLK4 (Homo sapiens, UniProt O00444)
[3] = target: GRK3 (Homo sapiens, UniProt P35626)
[4] = target: FLT3(ITD) (Homo sapiens, UniProt P36888, ITD)
[5] = target: MARK1 (Homo sapiens, UniProt Q9P0L2)
[6] = target: SGK3 (Homo sapiens, UniProt Q96BR1)
[7] = target: EGFR(L747-S752del, P753S) (Homo sapiens, UniProt P00533, DEL747-752/P753S)
[8] = target: T1, PRP4 (Homo sapiens, UniProt Q13523)
T1 construct: gene PRPF4B

[9] = target: PKN1 (Homo sapiens, UniProt Q16512)
[10] = target: T2, DRAK1 (Homo sapiens, UniProt Q9UEE5)
T2 construct: gene STK17A

[11] = target: T3, DLK (Homo sapiens, UniProt Q12852)
T3 construct: gene MAP3K12

[12] = target: EGFR(L747-E749del, A750P) (Homo sapiens, UniProt P00533, A750P/DEL747-749)
[13] = target: PRKCI (Homo sapiens, UniProt P41743)
[14] = target: TSSK3 (Homo sapiens, UniProt Q96PN8)
[15] = target: PRKD3 (Homo sapiens, UniProt O94806)
[16] = target: RIOK3 (Homo sapiens, UniProt O14730)
[17] = target: T4, RSK2(Kin.Dom.2-C-terminal) (Homo sapiens, UniProt P51812)
T4 construct: gene RPS6KA3; Kin.Dom.2-C-terminal

[18] = target: MYLK2 (Homo sapiens, UniProt Q9H1R3)
[19] = target: HIPK2 (Homo sapiens, UniProt Q9H2X6)
[20] = target: T5, CDC2L1 (Homo sapiens, UniProt P21127)
T5 construct: gene CDK11B

[21] = target: T6, NIK (Homo sapiens, UniProt Q99558)
T6 construct: gene MAP3K14
T6 sequence (Q99558 whole entry): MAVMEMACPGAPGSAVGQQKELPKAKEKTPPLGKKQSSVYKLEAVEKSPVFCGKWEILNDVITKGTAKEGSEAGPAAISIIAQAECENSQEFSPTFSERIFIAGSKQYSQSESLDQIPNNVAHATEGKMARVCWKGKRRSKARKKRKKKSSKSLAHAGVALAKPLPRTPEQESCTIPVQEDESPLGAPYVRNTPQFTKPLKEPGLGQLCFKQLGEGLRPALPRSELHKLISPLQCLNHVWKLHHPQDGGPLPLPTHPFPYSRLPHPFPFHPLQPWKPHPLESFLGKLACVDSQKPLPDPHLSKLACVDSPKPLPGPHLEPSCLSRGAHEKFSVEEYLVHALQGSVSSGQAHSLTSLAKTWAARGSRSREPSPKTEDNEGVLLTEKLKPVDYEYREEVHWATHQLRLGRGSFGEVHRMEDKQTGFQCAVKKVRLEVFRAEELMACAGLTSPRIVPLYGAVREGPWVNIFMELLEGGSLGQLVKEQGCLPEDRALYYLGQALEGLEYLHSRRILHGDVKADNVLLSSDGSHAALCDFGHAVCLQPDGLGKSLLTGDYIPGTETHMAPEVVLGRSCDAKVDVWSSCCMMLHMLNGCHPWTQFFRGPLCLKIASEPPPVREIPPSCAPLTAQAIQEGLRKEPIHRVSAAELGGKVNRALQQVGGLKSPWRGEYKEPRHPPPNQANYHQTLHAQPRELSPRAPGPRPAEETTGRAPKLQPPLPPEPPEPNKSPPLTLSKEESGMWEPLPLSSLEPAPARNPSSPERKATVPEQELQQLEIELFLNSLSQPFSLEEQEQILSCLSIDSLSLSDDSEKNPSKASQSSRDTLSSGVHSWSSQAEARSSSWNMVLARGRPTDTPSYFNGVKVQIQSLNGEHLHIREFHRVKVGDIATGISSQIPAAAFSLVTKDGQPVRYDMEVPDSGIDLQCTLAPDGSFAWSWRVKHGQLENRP

Chain of EGFR(L747-S752del, P753S) (P00533 with tags, fused parts or gaps DEL747-752/P753S): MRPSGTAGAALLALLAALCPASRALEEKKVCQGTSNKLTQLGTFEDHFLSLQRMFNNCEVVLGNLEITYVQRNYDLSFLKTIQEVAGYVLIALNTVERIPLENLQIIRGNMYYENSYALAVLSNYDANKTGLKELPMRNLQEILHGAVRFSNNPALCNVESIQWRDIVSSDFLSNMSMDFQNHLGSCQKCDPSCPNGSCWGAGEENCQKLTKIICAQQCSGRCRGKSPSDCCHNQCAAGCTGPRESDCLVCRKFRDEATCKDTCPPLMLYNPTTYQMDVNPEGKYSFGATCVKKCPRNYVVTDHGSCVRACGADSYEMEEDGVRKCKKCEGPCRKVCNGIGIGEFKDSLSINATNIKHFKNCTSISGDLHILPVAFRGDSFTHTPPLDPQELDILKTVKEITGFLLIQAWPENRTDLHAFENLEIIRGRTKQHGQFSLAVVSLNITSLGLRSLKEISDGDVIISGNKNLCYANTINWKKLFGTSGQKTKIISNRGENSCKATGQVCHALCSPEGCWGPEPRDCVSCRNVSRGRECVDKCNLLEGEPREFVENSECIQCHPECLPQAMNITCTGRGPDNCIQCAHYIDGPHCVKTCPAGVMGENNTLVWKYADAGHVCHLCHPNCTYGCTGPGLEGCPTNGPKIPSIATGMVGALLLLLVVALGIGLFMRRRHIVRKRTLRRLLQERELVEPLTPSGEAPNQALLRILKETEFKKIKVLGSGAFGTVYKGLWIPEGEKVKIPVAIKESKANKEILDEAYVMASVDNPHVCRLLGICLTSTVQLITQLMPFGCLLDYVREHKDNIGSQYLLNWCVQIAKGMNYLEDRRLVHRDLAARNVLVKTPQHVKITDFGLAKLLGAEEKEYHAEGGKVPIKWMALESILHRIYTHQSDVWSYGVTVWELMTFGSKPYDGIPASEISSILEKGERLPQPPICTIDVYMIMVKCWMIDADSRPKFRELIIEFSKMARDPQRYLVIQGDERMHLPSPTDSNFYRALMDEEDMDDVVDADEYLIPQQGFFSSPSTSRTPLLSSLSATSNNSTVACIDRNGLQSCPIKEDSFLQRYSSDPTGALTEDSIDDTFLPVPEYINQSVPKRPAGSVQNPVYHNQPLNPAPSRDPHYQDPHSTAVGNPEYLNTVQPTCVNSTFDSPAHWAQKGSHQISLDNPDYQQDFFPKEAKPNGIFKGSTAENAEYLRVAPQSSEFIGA
Chain of EGFR(L747-E749del, A750P) (P00533 with tags, fused parts or gaps DEL747-749/A750P): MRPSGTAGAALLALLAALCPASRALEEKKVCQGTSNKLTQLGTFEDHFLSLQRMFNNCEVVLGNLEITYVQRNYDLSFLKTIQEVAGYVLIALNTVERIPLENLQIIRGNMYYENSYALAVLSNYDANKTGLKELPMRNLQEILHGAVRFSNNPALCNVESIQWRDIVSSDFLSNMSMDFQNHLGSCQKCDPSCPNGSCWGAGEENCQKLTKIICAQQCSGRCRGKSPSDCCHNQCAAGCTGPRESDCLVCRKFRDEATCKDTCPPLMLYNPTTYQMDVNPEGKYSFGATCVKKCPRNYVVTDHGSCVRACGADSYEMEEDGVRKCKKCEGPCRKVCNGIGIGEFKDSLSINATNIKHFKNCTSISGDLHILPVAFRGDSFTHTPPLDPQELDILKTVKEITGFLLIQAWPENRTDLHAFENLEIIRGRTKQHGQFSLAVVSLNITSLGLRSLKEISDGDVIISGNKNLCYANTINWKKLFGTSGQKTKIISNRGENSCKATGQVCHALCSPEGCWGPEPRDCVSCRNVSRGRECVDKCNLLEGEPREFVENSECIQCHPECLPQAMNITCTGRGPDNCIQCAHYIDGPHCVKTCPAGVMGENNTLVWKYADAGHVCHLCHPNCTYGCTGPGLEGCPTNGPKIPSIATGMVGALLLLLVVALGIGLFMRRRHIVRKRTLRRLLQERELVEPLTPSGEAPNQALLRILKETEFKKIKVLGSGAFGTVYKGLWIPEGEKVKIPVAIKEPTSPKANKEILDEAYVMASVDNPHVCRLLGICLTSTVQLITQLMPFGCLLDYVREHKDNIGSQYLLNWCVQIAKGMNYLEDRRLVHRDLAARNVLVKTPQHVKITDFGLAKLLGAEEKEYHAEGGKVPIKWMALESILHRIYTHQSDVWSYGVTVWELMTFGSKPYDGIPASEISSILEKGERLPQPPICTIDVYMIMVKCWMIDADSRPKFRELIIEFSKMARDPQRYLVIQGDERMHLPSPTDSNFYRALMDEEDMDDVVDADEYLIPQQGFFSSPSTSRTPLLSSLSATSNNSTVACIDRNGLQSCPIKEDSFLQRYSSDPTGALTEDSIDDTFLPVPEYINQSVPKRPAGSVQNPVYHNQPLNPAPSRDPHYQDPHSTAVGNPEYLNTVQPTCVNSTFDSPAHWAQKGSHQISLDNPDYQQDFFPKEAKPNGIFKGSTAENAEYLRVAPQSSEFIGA
Chain of PRKCI (P41743 whole entry): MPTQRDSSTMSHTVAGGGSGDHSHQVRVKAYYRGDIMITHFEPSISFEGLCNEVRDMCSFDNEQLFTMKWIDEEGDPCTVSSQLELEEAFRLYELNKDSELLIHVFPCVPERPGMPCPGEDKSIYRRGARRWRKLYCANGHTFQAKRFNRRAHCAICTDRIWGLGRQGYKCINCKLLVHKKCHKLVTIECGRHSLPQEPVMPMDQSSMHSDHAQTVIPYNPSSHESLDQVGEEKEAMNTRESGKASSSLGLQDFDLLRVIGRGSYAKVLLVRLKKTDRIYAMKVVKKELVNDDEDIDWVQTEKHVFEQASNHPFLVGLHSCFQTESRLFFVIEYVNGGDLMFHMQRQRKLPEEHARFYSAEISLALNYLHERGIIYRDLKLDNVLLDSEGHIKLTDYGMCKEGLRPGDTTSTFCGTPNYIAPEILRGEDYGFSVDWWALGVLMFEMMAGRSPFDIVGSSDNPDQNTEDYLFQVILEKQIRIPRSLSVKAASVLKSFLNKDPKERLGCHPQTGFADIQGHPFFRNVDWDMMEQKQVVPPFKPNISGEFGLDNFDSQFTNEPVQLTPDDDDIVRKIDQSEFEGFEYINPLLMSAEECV
Chain of MARK1 (Q9P0L2 whole entry): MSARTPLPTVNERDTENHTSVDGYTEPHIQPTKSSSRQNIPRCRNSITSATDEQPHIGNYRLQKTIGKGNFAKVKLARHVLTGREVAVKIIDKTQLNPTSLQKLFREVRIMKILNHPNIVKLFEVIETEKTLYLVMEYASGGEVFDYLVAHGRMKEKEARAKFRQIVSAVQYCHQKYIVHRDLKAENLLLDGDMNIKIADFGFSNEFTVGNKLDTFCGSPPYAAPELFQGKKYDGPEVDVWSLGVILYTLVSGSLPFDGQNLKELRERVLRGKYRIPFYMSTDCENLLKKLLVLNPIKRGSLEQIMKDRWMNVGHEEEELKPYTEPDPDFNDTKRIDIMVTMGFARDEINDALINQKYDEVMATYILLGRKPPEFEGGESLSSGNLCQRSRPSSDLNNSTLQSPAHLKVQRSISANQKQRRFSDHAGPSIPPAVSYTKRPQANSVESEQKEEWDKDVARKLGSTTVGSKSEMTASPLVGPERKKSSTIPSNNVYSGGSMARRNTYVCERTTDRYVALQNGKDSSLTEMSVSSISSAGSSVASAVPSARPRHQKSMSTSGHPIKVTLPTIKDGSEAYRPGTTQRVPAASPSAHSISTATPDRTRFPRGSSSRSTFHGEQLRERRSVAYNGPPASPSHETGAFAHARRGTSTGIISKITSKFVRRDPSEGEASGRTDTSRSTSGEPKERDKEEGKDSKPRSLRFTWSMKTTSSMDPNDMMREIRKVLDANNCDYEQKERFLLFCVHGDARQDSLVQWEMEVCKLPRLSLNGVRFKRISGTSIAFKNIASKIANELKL
Chain of TSSK3 (Q96PN8 whole entry): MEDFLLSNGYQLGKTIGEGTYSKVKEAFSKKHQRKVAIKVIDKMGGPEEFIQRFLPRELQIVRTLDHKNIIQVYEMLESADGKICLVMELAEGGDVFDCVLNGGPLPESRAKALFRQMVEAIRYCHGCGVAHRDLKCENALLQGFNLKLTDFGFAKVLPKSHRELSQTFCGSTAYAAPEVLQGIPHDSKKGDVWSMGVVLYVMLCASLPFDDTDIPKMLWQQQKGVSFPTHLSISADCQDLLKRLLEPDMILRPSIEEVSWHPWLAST

In the case of COc1cc2c(cn1)N(C)C(=O)[C@@H](NC(=O)c1nc3n(n1)[C@H](c1ccccc1)CC3)CC2 [GNE684, (S)-N-((S)-7-methoxy-1-methyl-2-oxo-2,3,4,5-tetrahydro-1H-pyrido[3,4-b]azepin-3-yl)-5-phenyl-6,7-dihydro-5H-pyrrolo[1,2-b][1,2,4]triazole-2-carboxamide], the remaining binding at 10 µM [1] is reported as 94%, the remaining binding at 10 µM [2] is reported as 95% and the remaining binding at 10 µM [3] is reported as 100%. It also gave a remaining binding at 10 µM [4] of 100%, a remaining binding at 10 µM [5] of 69% and a remaining binding at 10 µM [6] of 93%. For the same compound, the remaining binding at 10 µM [7] was 100%, the remaining binding at 10 µM [8] was 84% and the remaining binding at 10 µM [9] was 94%. It also gave a remaining binding at 10 µM [10] of 92%, a remaining binding at 10 µM [11] of 100% and a remaining binding at 10 µM [12] of 85%. The remaining binding at 10 µM [13] was 95%, the remaining binding at 10 µM [14] was 96% and the remaining binding at 10 µM [15] was 100%. For the same compound, the remaining binding at 10 µM [16] was 100%, the remaining binding at 10 µM [17] was 85% and the remaining binding at 10 µM [18] was 83%. The remaining binding at 10 µM [19] was 82%, the remaining binding at 10 µM [20] was 100% and the remaining binding at 10 µM [21] was 100%.
